Reference: paper PMC4946363 (Cancer Research and Treatment : Official Journal of Korean …, 2016)
Counter-ions that a name gives are not always drawn.

Assays:
[1] = test system: myeloid blast crisis and lymphoid blast crisis; conditions: cited from earlier work
[2] = oral; cited from earlier work
[3] = Stability of imatinib in the LC-MS/MS bioanalytical method validation
CML = CML patients; cited from earlier work

For `Cc1ccc(NC(=O)c2ccc(CN3CCN(C)CC3)cc2)cc1Nc1nccc(-c2cccnc2)n1` [imatinib mesylate], the “Response rate, lymphoid blast crisis” value ([1]; oral 300-1,000 mg/day, 14 out of 20 patients) is listed as 70%, the “Response rate, myeloid blast crisis” value ([1]; oral 300-1,000 mg/day, 21 out of 38 patients) is listed as 55% and the “Complete hematologic response, myeloid blast crisis” value ([1]; oral 300-1,000 mg/day) is listed as 19%. For the same compound, the “Complete hematologic responses, lymphoid blast crisis” value ([1]; oral 300-1,000 mg/day) was 20%.

In the case of `Cc1ccc(NC(=O)c2ccc(CN3CCN(C)CC3)cc2)cc1Nc1nccc(-c2cccnc2)n1` [imatinib], the “Duration of remission from the commencement of therapy” value ([1]; responding patients continued on imatinib treatment) is listed as 101 to 349 days, the “Inter-patient CV, lnAUC0-24” value (ln-transformed AUC0-24) is listed as 25.2% and the “Intra-patient CV, lnAUC0-24” value (ln-transformed AUC0-24, test and reference together) is listed as 12.3%. For the same compound, the “Inter-patient CV, lnCmax” value (ln-transformed Cmax) was 20.4%, the “Intra-patient CV, lnCmax” value (ln-transformed Cmax, test and reference together) was 13.6% and the “Time to attain peak plasma concentration (Cmax)” value [2] was 2 to 4 h. The “In-injector stability, % change, HQC” value ([3]; 2-8°C, ~77 hr, high quality control) was “–5.6%”, the “In-injector stability, % change, LQC” value ([3]; 2-8°C, ~77 hr, low quality control) was 4.6% and the “Freeze thaw stability, % change, HQC” value ([3]; 3 cycles, high quality control) was “–6.1%”. For the same compound, the “Freeze thaw stability, % change, LQC” value ([3]; 3 cycles, low quality control) was 2.2%, the “Long-term stability, accuracy, HQC” value ([3]; 70 days, high quality control) was 97.4% and the “Long-term stability, accuracy, LQC” value ([3]; 70 days, low quality control) was 95.7%. The “Long-term stability, accuracy, MQC” value ([3]; 70 days, medium quality control) was 101.5%, the “Bench top stability, % change, HQC” value ([3]; room temperature, ~7 hr, high quality control) was “–7.2%” and the “Bench top stability, % change, LQC” value ([3]; room temperature, ~7 hr, low quality control) was 10.2%.

In the case of interferon-α [IFN-α], the Cytogenetic remission (CML) is given as 6%-20%.
